{
  "source": "patent EP0090204A1",
  "about": "“Optically active levorotatory derivatives of phenoxy-benzoic acid, method for their preparation and their use as herbicides” (BAYER AG, priority 1982, dated 1983)",
  "format_in_all_cases": "in vivo",
  "key": {"Monocotyledoneae [1]": {"system": "Monocotyledoneae", "assay": "Pre-emergence test", "conditions": "% damage vs untreated control after three weeks, average effect on several monocots", "text": "(§1) Zur Herstellung einer zweckmäßigen Wirkstoffzubereitung vermischt man 1 Gewichtsteil Wirkstoff mit der angegebenen Menge Lösungsmittel, gibt die angegebene Menge Emulgator zu und verdünnt das Konzentrat mit Wasser auf die gewünschte Konzentration.\n(§2) Samen der Testpflanzen werden in normalen Boden ausgesät und nach 24 Stunden mit der Wirkstoffzubereitung begossen. Dabei hält man die Wassermenge pro Flächeneinheit zweckmäßigerweise konstant. Die Wirkstoffkonzentration in der Zubereitung spielt keine Rolle, entscheidend ist nur die Aufwandmenge des Wirkstoffs pro Flächeneinheit. Nach drei Wochen wird der Schädigungsgrad der Pflanzen bonitiert in % Schädigung im Vergleich zur Entwicklung der unbehandelten Kontrolle."}, "Mais [2]": {"system": "Mais", "assay": "Pre-emergence test", "conditions": "% damage vs untreated control after three weeks", "text": "as §1, §2"}, "Dicotyledoneae [3]": {"system": "Dicotyledoneae", "assay": "Pre-emergence test", "conditions": "% damage vs untreated control after three weeks, average effect on several dicots", "text": "as §1, §2"}, "Soja [4]": {"system": "Soja", "assay": "Pre-emergence test", "conditions": "% damage vs untreated control after three weeks", "text": "as §1, §2"}, "Rüben [5]": {"system": "Rüben", "assay": "Pre-emergence test", "conditions": "% damage vs untreated control after three weeks", "text": "as §1, §2"}, "Testpflanzen [6]": {"system": "Testpflanzen", "assay": "Pre-emergence test, overall comparison", "conditions": "compared with the corresponding racemic compounds (A) and (B)", "text": "as §1, §2"}, "Monocotyledoneae [7]": {"system": "Monocotyledoneae", "assay": "Post-emergence test", "conditions": "% damage vs untreated control after three weeks, average effect on several monocots", "text": "as §1\n(§3) Mit der Wirkstoffzubereitung spritzt man Testpflanzen, welche eine Höhe von 5 - 15 cm haben so, daß die jeweils gewünschten Wirkstoffmengen pro Flächeneinheit ausgebracht werden. Die Konzentration der Spritzbrühe wird so gewählt, daß in 2000 1 Wasser/ha die jeweils gewünschten Wirkstoffmengen ausgebracht werden. Nach drei Wochen wird der Schädigungsgrad der Pflanzen bonitiert in % Schädigung im Vergleich zur Entwicklung der unbehandelten Kontrolle."}, "Mais [8]": {"system": "Mais", "assay": "Post-emergence test", "conditions": "% damage vs untreated control after three weeks", "text": "as §1, §3"}, "Dicotyledoneae [9]": {"system": "Dicotyledoneae", "assay": "Post-emergence test", "conditions": "% damage vs untreated control after three weeks, average effect on several dicots", "text": "as §1, §3"}, "Soja [10]": {"system": "Soja", "assay": "Post-emergence test", "conditions": "% damage vs untreated control after three weeks", "text": "as §1, §3"}, "Rüben [11]": {"system": "Rüben", "assay": "Post-emergence test", "conditions": "% damage vs untreated control after three weeks", "text": "as §1, §3"}, "Testpflanzen [12]": {"system": "Testpflanzen", "assay": "Post-emergence test, overall comparison", "conditions": "compared with the corresponding racemic compounds (A) and (B)", "text": "as §1, §3"}},
  "data": [
    {"smiles": "CCOC(=O)[C@@H](C)OC(=O)c1cc(Oc2c(Cl)cc(C(F)(F)F)cc2Cl)ccc1[N+](=O)[O-]", "note": "[(1), 5-(2,6-Dichlor-4-trifluormethyl-phenoxy)-2-nitro-benzoesäure-(1-ethoxycarbonylethyl)-esters]", "values": [
      {"measurement": "Wirkung (in %) Monocotyledoneae", "setting": "Monocotyledoneae [1]; 0,6 kg/ha", "value": "79,3%"},
      {"measurement": "Wirkung (in %) Mais", "setting": "Mais [2]; 0,6 kg/ha", "value": 10, "unit": "%"},
      {"measurement": "Wirkung (in %) Dicotyledoneae", "setting": "Dicotyledoneae [3]; 0,6 kg/ha", "value": "92,7%"},
      {"measurement": "Wirkung (in %) Soja", "setting": "Soja [4]; 0,6 kg/ha", "value": 10, "unit": "%"},
      {"measurement": "Wirkung (in %) Rüben", "setting": "Rüben [5]; 0,6 kg/ha", "value": 100, "unit": "%"},
      {"measurement": "herbizide Wirksamkeit", "setting": "Testpflanzen [6]", "value": "bessere herbizide Wirksamkeit"},
      {"measurement": "Wirkung (in %) Monocotyledoneae", "setting": "Monocotyledoneae [7]; 0,6 kg/ha", "value": "81,1%"},
      {"measurement": "Wirkung (in %) Mais", "setting": "Mais [8]; 0,6 kg/ha", "value": 80, "unit": "%"},
      {"measurement": "Wirkung (in %) Dicotyledoneae", "setting": "Dicotyledoneae [9]; 0,6 kg/ha", "value": "99,3%"},
      {"measurement": "Wirkung (in %) Soja", "setting": "Soja [10]; 0,6 kg/ha", "value": 100, "unit": "%"},
      {"measurement": "Wirkung (in %) Rüben", "setting": "Rüben [11]; 0,6 kg/ha", "value": 100, "unit": "%"},
      {"measurement": "herbizide Wirksamkeit", "setting": "Testpflanzen [12]", "value": "bessere herbizide Wirksamkeit"}
    ]},
    {"smiles": "CCOC(=O)[C@@H](C)OC(=O)c1cc(Oc2ccc(C(F)(F)F)cc2Cl)ccc1[N+](=O)[O-]", "note": "[(2), 5-(2-Chlor-4-trifluormethyl-phenoxy)-2-nitro-benzoesäure-(1-ethoxycarbonyl-ethyl)-esters]", "values": [
      {"measurement": "Wirkung (in %) Monocotyledoneae", "setting": "Monocotyledoneae [1]; 0,75 kg/ha", "value": "80,7%"},
      {"measurement": "Wirkung (in %) Mais", "setting": "Mais [2]; 0,75 kg/ha", "value": 0, "unit": "%"},
      {"measurement": "Wirkung (in %) Dicotyledoneae", "setting": "Dicotyledoneae [3]; 0,75 kg/ha", "value": "74,3%"},
      {"measurement": "Wirkung (in %) Soja", "setting": "Soja [4]; 0,75 kg/ha", "value": 0, "unit": "%"},
      {"measurement": "Wirkung (in %) Rüben", "setting": "Rüben [5]; 0,75 kg/ha", "value": 99, "unit": "%"},
      {"measurement": "herbizide Wirksamkeit", "setting": "Testpflanzen [6]", "value": "bessere herbizide Wirksamkeit"},
      {"measurement": "Wirkung (in %) Monocotyledoneae", "setting": "Monocotyledoneae [7]; 0,75 kg/ha", "value": "86,3%"},
      {"measurement": "Wirkung (in %) Mais", "setting": "Mais [8]; 0,75 kg/ha", "value": 99, "unit": "%"},
      {"measurement": "Wirkung (in %) Dicotyledoneae", "setting": "Dicotyledoneae [9]; 0,75 kg/ha", "value": "99,3%"},
      {"measurement": "Wirkung (in %) Soja", "setting": "Soja [10]; 0,75 kg/ha", "value": 99, "unit": "%"},
      {"measurement": "Wirkung (in %) Rüben", "setting": "Rüben [11]; 0,75 kg/ha", "value": 100, "unit": "%"},
      {"measurement": "herbizide Wirksamkeit", "setting": "Testpflanzen [12]", "value": "bessere herbizide Wirksamkeit"}
    ]}
  ]
}
